This assay has as its target human F508del-CFTR (Homo sapiens, UniProt P13569, DEL508-508). Nature of the assay: F508del-CFTR cell surface expression (corrector activity), DiscoveRx ß-galactosidase complementation chemiluminescence assay in recombinant U2OS cell line.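 On all read-outs here: U2OS cells co-expressing ProLink-tagged F508del-CFTR and a membrane-anchored enzyme acceptor, where more surface CFTR restores β-galactosidase activity measured by chemiluminescence.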 Conditions: for EC50: EC50, F508del-CFTR cell surface expression, U2OS cells, 16h compound incubation, geomean values; for Emax: U2OS, in relation to Emax of corrector lumacaftor (=100%), arithmetic mean values.

human F508del-CFTR, sequence (P13569 with tags, fused parts or gaps DEL508-508): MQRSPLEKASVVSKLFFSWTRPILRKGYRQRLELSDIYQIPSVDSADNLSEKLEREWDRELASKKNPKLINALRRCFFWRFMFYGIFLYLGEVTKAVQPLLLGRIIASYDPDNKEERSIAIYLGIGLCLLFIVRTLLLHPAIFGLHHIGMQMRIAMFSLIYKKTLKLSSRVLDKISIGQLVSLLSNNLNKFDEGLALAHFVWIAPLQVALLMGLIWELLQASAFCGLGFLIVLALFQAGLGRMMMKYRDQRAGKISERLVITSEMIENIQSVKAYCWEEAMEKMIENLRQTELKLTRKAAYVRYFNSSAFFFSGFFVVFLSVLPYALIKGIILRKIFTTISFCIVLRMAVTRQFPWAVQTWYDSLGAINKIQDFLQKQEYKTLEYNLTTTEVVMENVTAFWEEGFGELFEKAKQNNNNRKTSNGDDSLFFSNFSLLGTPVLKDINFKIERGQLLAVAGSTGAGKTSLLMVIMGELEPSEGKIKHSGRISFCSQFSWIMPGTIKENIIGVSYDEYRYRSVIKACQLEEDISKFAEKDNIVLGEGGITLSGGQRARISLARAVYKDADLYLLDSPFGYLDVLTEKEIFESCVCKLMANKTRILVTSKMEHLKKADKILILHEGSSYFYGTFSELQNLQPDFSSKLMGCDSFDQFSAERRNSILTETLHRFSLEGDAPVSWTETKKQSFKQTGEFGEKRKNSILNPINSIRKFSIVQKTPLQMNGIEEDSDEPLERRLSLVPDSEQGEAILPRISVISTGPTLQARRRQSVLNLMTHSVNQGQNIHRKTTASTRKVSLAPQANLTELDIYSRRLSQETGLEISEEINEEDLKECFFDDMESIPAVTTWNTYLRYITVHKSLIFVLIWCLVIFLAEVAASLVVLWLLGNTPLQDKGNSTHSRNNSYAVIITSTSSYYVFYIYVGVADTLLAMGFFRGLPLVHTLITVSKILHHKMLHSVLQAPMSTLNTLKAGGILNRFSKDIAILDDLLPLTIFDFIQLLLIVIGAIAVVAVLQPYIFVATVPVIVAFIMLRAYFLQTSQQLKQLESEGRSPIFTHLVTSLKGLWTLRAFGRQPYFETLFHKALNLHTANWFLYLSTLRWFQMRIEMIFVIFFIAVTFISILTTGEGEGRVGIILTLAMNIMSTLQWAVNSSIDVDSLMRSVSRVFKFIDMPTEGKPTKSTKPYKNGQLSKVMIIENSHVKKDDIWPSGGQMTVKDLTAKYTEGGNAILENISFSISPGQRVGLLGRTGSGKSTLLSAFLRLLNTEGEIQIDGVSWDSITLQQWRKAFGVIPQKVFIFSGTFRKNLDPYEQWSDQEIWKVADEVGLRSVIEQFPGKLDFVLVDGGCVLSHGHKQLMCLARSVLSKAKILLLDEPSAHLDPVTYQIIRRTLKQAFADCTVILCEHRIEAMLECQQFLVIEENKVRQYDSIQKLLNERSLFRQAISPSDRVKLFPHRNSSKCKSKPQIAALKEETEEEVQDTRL

As usually defined, the EC50 is the midpoint of the concentration-response curve. Usually Emax stands for the size of the effect at its maximum, as opposed to the concentration needed. `COc1nccc2c1C(=O)N[C@H](C(=O)NCCc1cc(C3CC3)no1)CC(=O)N(C)[C@@H](CC(C)C)C(=O)N1CC[C@H](c3ccccc3)C[C@@H]1C(=O)N[C@H](Cc1ccccc1)CO2` [Example 673, (7S,11S,17aR,20R)-20-benzyl-N-(2-(3-cyclopropylisoxazol-5-yl)ethyl)-11-isobutyl-4-methoxy-10-methyl-5,9,12,18-tetraoxo-16-phenyl-5,6,7,8,9,10,11,12,15,16,17,17a,18,19,20,21-hexadecahydro-14H-dipyrido[2,1-f:3′,4′-p][1]oxa[4,7,10,14]tetraazacycloheptadecine-7-carboxamide]: the EC50 is 67 nM and the Emax was 314%.
The corresponding values for `CC(C)C[C@H]1C(=O)N2CC[C@@H](c3ccccc3)C[C@H]2C(=O)N[C@H](Cc2ccccc2)COc2cnc3ccccc3c2C(=O)N[C@H](C(=O)NCCc2cc(C3CC3)no2)CC(=O)N1C` [Example 675, (9S,13S,19aS,22R)-22-benzyl-N-(2-(3-cyclopropylisoxazol-5-yl)ethyl)-13-isobutyl-12-methyl-7,11,14,20-tetraoxo-18-phenyl-7,8,9,10,11,12,13,14,17,18,19,19a,20,21,22,23-hexadecahydro-16H-pyrido[2′,1′:6,7][1]oxa[4,7,10,14]tetraazacycloheptadecino[17,16-c]quinoline-9-carboxamide] are 194 nM and 159%.
In the same order, the values of `CC(C)C[C@H]1C(=O)N2CC[C@@H](c3ccccc3)C[C@@H]2C(=O)N[C@H](Cc2ccccc2)COc2cnc3ccccc3c2C(=O)N[C@H](C(=O)NCCc2cc(C3CC3)no2)CC(=O)N1C` [Example 676, (9S,13S,19aR,22R)-22-benzyl-N-(2-(3-cyclopropylisoxazol-5-yl)ethyl)-13-isobutyl-12-methyl-7,11,14,20-tetraoxo-18-phenyl-7,8,9,10,11,12,13,14,17,18,19,19a,20,21,22,23-hexadecahydro-16H-pyrido[2′,11:6,7][1]oxa[4,7,10,14]tetraazacycloheptadecino[17,16-c]quinoline-9-carboxamide] are 62 nM and 267%.
For the compound `CC(C)C[C@H]1C(=O)N2CC[C@H](c3ccccc3)C[C@@H]2C(=O)N[C@H](Cc2ccccc2)COc2cnc3ccccc3c2C(=O)N[C@H](C(=O)NCCc2cc(C3CC3)no2)CC(=O)N1C` [Example 677, (9S,13S,19aR,22R)-22-benzyl-N-(2-(3-cyclopropylisoxazol-5-yl)ethyl)-13-isobutyl-12-methyl-7,11,14,20-tetraoxo-18-phenyl-7,8,9,10,11,12,13,14,17,18,19,19a,20,21,22,23-hexadecahydro-16H-pyrido[2′,1′:6,7][1]oxa[4,7,10,14]tetraazacycloheptadecino[17,16-c]quinoline-9-carboxamide], the EC50 is 37 nM and the Emax is 283%.
In the same order, the values of `COc1nccc2c1C(=O)N[C@H](C(=O)NCCc1cc(C)no1)CC(=O)N(C)[C@@H](CC(C)C)C(=O)N1Cc3ccccc3C[C@@H]1C(=O)N[C@H](Cc1ccccc1)CO2` [Example 678, (7S,11S,19aR,22R)-22-benzyl-11-isobutyl-4-methoxy-10-methyl-N-(2-(3-methylisoxazol-5-yl)ethyl)-5,9,12,20-tetraoxo-5,6,7,8,9,10,11,12,19,19a,20,21,22,23-tetradecahydro-14H-pyrido[3′,4′:16,17][1]oxa[4,7,10,14]tetraazacycloheptadecino[7,6-b]isoquinoline-7-carboxamide] are 355 nM and 296%.
The corresponding values for `COc1nccc2c1C(=O)N[C@H](C(=O)NCCc1cc(C)no1)CC(=O)N(C)[C@@H](CC(C)C)C(=O)N1CCc3ccccc3[C@@H]1C(=O)N[C@H](Cc1ccccc1)CO2` [Example 679, (7S,11S,19bR,22R)-22-benzyl-11-isobutyl-4-methoxy-10-methyl-N-(2-(3-methylisoxazol-5-yl)ethyl)-5,9,12,20-tetraoxo-5,6,7,8,9,10,11,12,15,19b,20,21,22,23-tetradecahydro-14H-pyrido[3′,4′:16,17][1]oxa[4,7,10,14]tetraazacycloheptadecino[6,7-a]isoquinoline-7-carboxamide] are 869 nM and 277%.
In the same order, the values of `COc1cccc(CCNC(=O)[C@@H]2CC(=O)N(C)[C@@H](CC(C)C)C(=O)N(C)[C@H](C)C(=O)N[C@H](Cc3ccccc3)COc3cnc4ccccc4c3C(=O)N2)c1` [Example 680, (3S,7S,10R,13R)-13-benzyl-7-isobutyl-N-(3-methoxyphenethyl)-6,9,10-trimethyl-1,5,8,11-tetraoxo-1,2,3,4,5,6,7,8,9,10,11,12,13,14-tetradecahydro-[1]oxa[4,7,10,14]tetraazacycloheptadecino[17,16-c]quinoline-3-carboxamide] are 448 nM and 340%.
As to `COc1nccc2c1C(=O)N[C@H](C(=O)NCCc1noc(C3CC3)n1)CC(=O)N(C)[C@@H](CC(C)C)C(=O)N(C)[C@H](c1ccccc1)C(=O)N[C@H](Cc1ccccc1)CO2` [Example 681, (3R,6R,9S,13S)-3-benzyl-N-(2-(5-cyclopropyl-1,2,4-oxadiazol-3-yl)ethyl)-9-isobutyl-16-methoxy-7,10-dimethyl-5,8,11,15-tetraoxo-6-phenyl-2,3,4,5,6,7,8,9,10,11,12,13,14,15-tetradecahydropyrido[3,4-p][1]oxa[4,7,10,14]tetraazacycloheptadecine-13-carboxamide], the EC50 came out at 447 nM and the Emax worked out at 313%.
Consider `COc1nccc2c1C(=O)N[C@H](C(=O)NCCc1cc(C3CC3)on1)CC(=O)N(C)[C@@H](CC(C)C)C(=O)N(C)[C@H](CC1CCC(F)(F)CC1)C(=O)N[C@H](Cc1ccccc1)CO2` [Example 682, (3R,6R,9S,13S)-3-benzyl-N-(2-(5-cyclopropylisoxazol-3-yl)ethyl)-6-((4,4-difluorocyclohexyl)methyl)-9-isobutyl-16-methoxy-7,10-dimethyl-5,8,11,15-tetraoxo-2,3,4,5,6,7,8,9,10,11,12,13,14,15-tetradecahydropyrido[3,4-p][1]oxa[4,7,10,14]tetraazacycloheptadecine-13-carboxamide], for which the EC50 is 110 nM and the maximal effect (Emax) came out at 351%.
The corresponding values for `COc1nc(C)cc2c1C(=O)N[C@H](C(=O)NCCc1cc(C)no1)CC(=O)N(C)[C@@H](CC(C)C)C(=O)N1CCC3(CC3)C[C@@H]1C(=O)N[C@H](Cc1ccccc1)CO2` [Example 683, (7′S,11′S,17a′R,20′R)-20′-benzyl-11′-isobutyl-4′-methoxy-2′,10′-dimethyl-N-(2-(3-methylisoxazol-5-yl)ethyl)-5′,9′,12′,18′-tetraoxo-5′,6′,7′,8′,9′,10′,11′,12′,14′,15′,17′,17a′,18′,19′,20′,21′-hexadecahydrospiro[cyclopropane-1,16′-dipyrido[2,1-f:3′,4′-p][1]oxa[4,7,10,14]tetraazacycloheptadecine]-7′-carboxamide] are 362 nM and 262%.
The corresponding values for `COc1cc(CCNC(=O)[C@@H]2CC(=O)N(C)[C@@H](CC(C)C)C(=O)N3CCC4(CC4)C[C@H]3C(=O)N[C@H](Cc3ccccc3)COc3cc(C)nc(OC)c3C(=O)N2)on1` [Example 684, (7′S,11′S,17a′S,20′R)-20′-benzyl-11′-isobutyl-4′-methoxy-N-(2-(3-methoxyisoxazol-5-yl)ethyl)-2′,10′-dimethyl-5′,9′,12′,18′-tetraoxo-5′,6′,7′,8′,9′,10′,11′,12′,14′,15′,17′,17a′,18′,19′,20′,21′-hexadecahydrospiro[cyclopropane-1,16′-dipyrido[2,1-f:3′,4′-p][1]oxa[4,7,10,14]tetraazacycloheptadecine]-7′-carboxamide] are 986 nM and 235%.
As to `[2H]C([2H])([2H])Oc1nc(C)cc2c1C(=O)N[C@H](C(=O)NCCc1cnn(C3CC3)n1)CC(=O)N(C)[C@@H](CC(C)C)C(=O)N1CCCC[C@@H]1C(=O)N[C@H](Cc1ccccc1)CO2` [Example 685, (7S,11S,17aR,20R)-20-benzyl-N-(2-(2-cyclopropyl-2H-1,2,3-triazol-4-yl)ethyl)-11-isobutyl-4-(methoxy-d3)-], the EC50 was 500 nM and the Emax was 234%.
In the same order, the values of `COc1cc(CCNC(=O)[C@@H]2CC(=O)N(C)[C@@H](CC(C)C)C(=O)N(C)C3(CC3)C(=O)N[C@H](Cc3ccccc3)COc3cnc4ccccc4c3C(=O)N2)on1` [Example 686, (3′S,7′S,13′R)-13′-benzyl-7′-isobutyl-N-(2-(3-methoxyisoxazol-5-yl)ethyl)-6′,9′-dimethyl-1′,5′,8′,11′-tetraoxo-2′,3′,4′,5′,6′,7′,8′,9′,11′,12′,13′,14′-dodecahydro-1′H-spiro[cyclopropane-1,10′-[1]oxa[4,7,10,14]tetraazacycloheptadecino[17,16-c]quinoline]-3′-carboxamide] are 436 nM and 332%.
In the same order, the values of `CC(C)C[C@H]1C(=O)N(C)CC(=O)N[C@H](Cc2ccccc2)COc2ccccc2C(=O)N[C@H](C(=O)NCCc2ccc3c(c2)OCO3)CC(=O)N1C` [Example 687, (3R,9S,13S)-N-(2-(benzo[d][1,3]dioxol-5-yl)ethyl)-3-benzyl-9-isobutyl-7,10-dimethyl-5,8,11,15-tetraoxo-2,3,4,5,6,7,8,9,10,11,12,13,14,15-tetradecahydrobenzo[p][1]oxa[4,7,10,14]tetraazacycloheptadecine-13-carboxamide] are 794 nM and 107%.
The corresponding values for `CC(C)C[C@H]1C(=O)N(C)CC(=O)N[C@H](Cc2ccccc2)COc2ccccc2C(=O)N[C@H](C(=O)NCCc2ccc3c(c2)OCCO3)CC(=O)N1C` [Example 688, (3R,9S,13S)-3-benzyl-N-(2-(2,3-dihydrobenzo[b][1,4]dioxin-6-yl)ethyl)-9-isobutyl-7,10-dimethyl-5,8,11,15-tetraoxo-2,3,4,5,6,7,8,9,10,11,12,13,14,15-tetradecahydrobenzo[p][1]oxa[4,7,10,14]tetraazacycloheptadecine-13-carboxamide] are 458 nM and 104%.

These data come from patent US20240208992A1, “MACROCYCLES AS CFTR MODULATORS” (Idorsia Pharmaceuticals Ltd, priority 2021, published 2024).
